Source: US11357774B2, “Use of a quinoline sulfonyl compound for treatment of inflammation, inflammatory disorders, autoimmune disorders and malaria” (priority 2019, dated 2022)

Assays:
[1] = system: THP-1 cells; assay: CCK-8 cell viability, THP-1 cells; type: cell-based; conditions: THP-1, 6 hours with LPS 5 μg/mL or TNF-α 10 ng/mL; VR23 3 μM, BTZ 6 nM, CFZ 1 nM, DEX 2 μM
Experimental: (§1) Dunnett's test was performed to assess if there are significant differences in cell viability compared to the non-treatment control group. The values presented are mean±SEM (n=3).
(§2) The CCK-8 assay was used to count viable cells under the various treatment conditions. Briefly, cells were cultured in 11 columns of a 96-well clustered plate, with 5,000 cells in 100 μL of culture medium per well, excluding one column for a media-only control. The plate was incubated overnight at 37° C. in the humidified conditions, followed by treatment with test compounds diluted in the culture medium (10 μL). Each column was treated with a different condition so that each treatment could have 8 repeats. […] The absorbance was measured using an automatic plate reader (Synergy H4 Hybrid Multi-Mode Microplate Reader, BioTek, Montreal, Canada) at 450 nm wavelength. The cell viability of each treatment sample was determined by using the following equation (%)=(Abstrtmt-Absmedia)/(AbsuT-Absmedia)*100, where Abstrtmt is the absorbance value of cells with the various treatment conditions; Absmedia is the absorbance of the well containing media only; AbsuT is the absorbance of the wells with untreated cells. […]

[2] = system: mouse lung tissues with ALI caused by LPS; assay: Histopathological analysis of lung tissues of mice with LPS-induced ALI; type: in vivo; conditions: LPS 0.4 mg/kg, 24 hours, VR23 30 mg/kg, DEX 4 mg/kg
Experimental: Six to eight week old female BALB/c mice strain 028 (Charles River Laboratories, QC, Canada) were fed regularly with laboratory chow and water upon arrival at the Laurentian University Animal Care Facility (Sudbury, ON, Canada). To determine a useful dose of LPS, three mice per group were treated for 24 hours with the following three different conditions: (i) no LPS, (ii) 0.25 mg of LPS per kg of body weight, and (iii) 0.50 mg of LPS per kg of body weight. The different concentrations of LPS were administered intranasally to the three BALB/c mice per concentration. After the animals were sacrificed, the bronchoalveolar lavage fluid (BALF) of each mouse was collected and analyzed for LPS-induced inflammatory responses. […] Experimental design involving the use of VR23 was based on a previous acute lung injury (ALI) instillation by Wei and Huang^26. Briefly, mice were divided into 5 groups, with 3-5 mice per group: no lung injury (i.e., no treat), sham treated, LPS-only, LPS+DEX, and LPS+VR23. […] Bronchoalveolar lavage fluid was collected and the number of cells infiltrated into the bronchoalveolar fluid were counted (FIG. 2). […]
At 24-hour post-induction of lung injury with LPS, lung tissues were embedded in the paraffin block, followed by slicing them into 10 μm sections using a microtome. […] For microscopy, at least 10 fields were analyzed for each sample. […]

[3] = system: IL-6 secretion in HFLS-N cells; assay: IL-6 secretion in stimulated HFLS-N cells (ELISA); type: cell-based, human; conditions: 6 hours
Experimental: The mean±SEM (n=3) values were determined by a Dunnett's test.
The values presented are the mean±SEM (n=2).
The enzyme-linked immunosorbent assay (ELISA) is a quantitative measurement based on sandwich-based enzyme linking, using a protein-specific capture antibody to determine the levels of single or multiple chemokines and cytokines.
This finding was extended to human cells relevant to autoimmune diseases. Human fibroblast-like synoviocytes (HFLS) are present in the synovial fluid of joint capsules and produce harmful molecules that contribute to joint destruction and the exacerbation of the disease in rheumatoid arthritis patients. […] The cells were then stimulated with IL-1β (FIG. 16) or LPS (FIG. 17), in the absence (control; IL-1β only) or presence of VR23 or HCQ. HCQ was included for comparison because it is often used to treat rheumatoid arthritis. […] For “VR23 only” samples, 5 μM VR23 was used. Fifty thousand HFLS cells per mL were used for the experiment. Cytokine levels in cell culture supernatants were determined by a single-analyte ELISA. […] Fifty thousand HFLS cells per mL were used for the experiment. The cytokine secretion was measured in cell culture supernatants by a single-analyte ELISA.

[4] = system: SW-982 cells; assay: CCK-8 cell viability, SW-982 cells; type: cell-based; conditions: SW-982, 6 hours with IL-1β 1 ng/mL; VR23 5 μM, HCQ 30 μM
Experimental: as §1, §2

## O=[N+]([O-])c1ccc(S(=O)(=O)N2CCN(c3ccnc4cc(Cl)ccc34)CC2)c([N+](=O)[O-])c1 [VR23, 7-chloro-4-(4-(2,4-dinitrophenylsulfonyl)piperazin-1-yl)quinoline]
[1]
  cell viability (CCK-8): did not significantly differ from the untreated cells
[2]
  alveolar inflammation caused by LPS (H & E histopathology): largely prevented
[3]; IL-1β 10 ng/mL, VR23 2.5-10 μM, HCQ 15 or 30 μM
  IL-6 secretion, dose dependence: decreases in a dose dependent manner
[3]; LPS 100 ng/mL
  secretion of IL-6: rate of the decrease is much lower
[4]
  cell viability (CCK-8): did not significantly differ from the untreated cells
